Results on 51 compounds are retold here after patent US20090239841A1, “Diaryl Ureas as CB1 Antagonists” (priority 2004, published 2009).

The assay has as its target T1, hCB1 (Homo sapiens, UniProt P21554).
T1 construct: made in house; host or cells: Sf9 insect cells (baculovirus), P2 membranes
Kind of assay: Agonist-induced GTP binding (GTPγ35S) assay at CB1, Example 8. It counts as biochemical. As to conditions: read-out: IC50. In a few lines: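 Antagonism read as inhibition of 1 nM CP55,940-stimulated GTPγ35S ([…]) binding, compounds at 10^−10 to 10^−5 M. Baculovirus-infected Sf9 membranes bearing hCB1 plus G-protein subunits, 60 min room-temperature incubation with 5 μM GDP. Filtration and scintillation counting; data as percent over basal.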

Where [1] appears, read: Table II, IC50 at CB1, GTP binding with 1 nM CP55,940.
The mark [2] stands for this setting: IC50 at CB1, determined as described in Example 8.
[3] abbreviates: Table I, IC50 at CB1, GTP binding with 1 nM CP55,940.

Read-outs that look alike come from different tables or passages of the source. Bounds are passed on as bounds.

T1 sequence (P21554 whole entry): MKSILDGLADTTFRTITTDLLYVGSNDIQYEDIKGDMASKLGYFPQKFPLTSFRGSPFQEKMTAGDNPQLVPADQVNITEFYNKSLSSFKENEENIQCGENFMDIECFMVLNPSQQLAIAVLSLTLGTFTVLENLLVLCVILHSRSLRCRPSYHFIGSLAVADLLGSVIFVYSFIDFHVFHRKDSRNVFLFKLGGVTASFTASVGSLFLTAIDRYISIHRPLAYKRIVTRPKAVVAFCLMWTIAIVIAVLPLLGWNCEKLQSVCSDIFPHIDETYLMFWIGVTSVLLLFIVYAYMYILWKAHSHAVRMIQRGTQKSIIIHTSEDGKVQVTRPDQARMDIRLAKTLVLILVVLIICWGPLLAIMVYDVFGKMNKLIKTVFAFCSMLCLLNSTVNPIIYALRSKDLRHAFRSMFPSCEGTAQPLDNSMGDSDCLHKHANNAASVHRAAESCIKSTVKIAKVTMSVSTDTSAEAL

For `COCc1ccc(NC(=O)Nc2ccc(Cl)cc2)cc1` [Compound 242, N-(4-chlorophenyl)-N′-[4-(methoxymethyl)phenyl]urea], under setting [1], the IC50 (usually the point on the concentration scale where inhibition reaches its midpoint) is less than 2000 nM.
`Cc1ccc(NC(=O)Nc2ccc(F)cc2)cc1C` [Compound 428, 1-(3,4-dimethylphenyl)-3-(4-fluorophenyl)urea]: the IC50 under setting [2] was less than 2000 nM.
With `CCOc1cccc(NC(=O)Nc2ccc(C)c(C)c2)c1` [Compound 680, 1-(3,4-dimethylphenyl)-3-(3-ethoxyphenyl)urea], the IC50 under setting [2] was less than 2000 nM.
`CCCc1ccc(NC(=O)Nc2cccc(F)c2)cc1` [Compound 177, N-(3-fluorophenyl)-N′-(4-propylphenyl)urea]: under setting [1], the IC50 was less than 2000 nM.
As for `N#CCc1ccc(NC(=O)Nc2ccc(Cl)cc2)cc1` [Compound 485, 1-(4-chlorophenyl)-3-[4-(cyanomethyl)phenyl]urea], under setting [2], the IC50 was less than 2000 nM.
Regarding `CCCOc1ccc(NC(=O)Nc2ccc(C)cc2)cc1` [Compound 40, N-(4-methylphenyl)-N′-(4-propoxyphenyl)urea], under setting [3], the IC50 is less than 2000 nM.
As to `CCc1ccc(NC(=O)Nc2cccc(COC)c2)cc1` [Compound 238, N-(4-ethylphenyl)-N′-[3-(methoxymethyl)phenyl]urea], under setting [1], the IC50 is less than 2000 nM.
With `CC(C)Oc1ccc(NC(=O)Nc2ccc(F)c(F)c2)cc1` [Compound 694, 1-(3,4-difluorophenyl)-3-(4-isopropoxyphenyl)urea], the IC50 under setting [2] is less than 2000 nM.
Consider `CC(C)Oc1ccc(NC(=O)Nc2ccc([N+](=O)[O-])cc2)cc1` [Compound 564, 1-(4-isopropoxyphenyl)-3-(4-nitrophenyl)urea], for which the IC50 under setting [2] is less than 2000 nM.
With `CCCOc1ccc(NC(=O)Nc2cccc(Cl)c2)cc1` [Compound 244, N-(3-chlorophenyl)-N′-(4-propoxyphenyl)urea], the IC50 under setting [1] is less than 2000 nM.
For the compound `Cc1ccc(NC(=O)Nc2cccc(OC(C)C)c2)cc1F` [Compound 688, 1-(3-fluoro-4-methylphenyl)-3-(3-isopropoxyphenyl)urea], the IC50 under setting [2] is less than 2000 nM.
For `O=C(Nc1ccc(OC(F)F)cc1)Nc1ccc(OC(F)F)cc1` [Compound 4, N,N′-bis[4-(difluoromethoxy)phenyl]urea], the IC50 under setting [3] is less than 2000 nM.
`CC(=O)c1cccc(NC(=O)Nc2ccc(C(C)C)cc2)c1` [Compound 347, 1-(3-acetylphenyl)-3-(4-isopropylphenyl)urea]: the IC50 under setting [2] was less than 2000 nM.
Turning to `CCc1cccc(NC(=O)Nc2ccc(C)cc2)c1` [Compound 174, N-(3-ethylphenyl)-N′-(4-methylphenyl)urea], the IC50 under setting [1] was less than 2000 nM.
For the compound `O=C(Nc1ccc(OC(F)F)cc1)Nc1cnc2ccccc2c1` [Compound 126, N-[4-(difluoromethoxy)phenyl]-N′-quinolin-3-ylurea], under setting [1], the IC50 was less than 2000 nM.
As for `CCOC(=O)c1ccc(NC(=O)Nc2ccc(OCC)cc2)cc1` [Compound 595, ethyl 4-({[(4-ethoxyphenyl)amino]carbonyl}amino)benzoate], the IC50 under setting [2] was less than 2000 nM.
Take `CCOc1ccc(NC(=O)Nc2cccc(OCC)c2)cc1` [Compound 543, 1-(3-ethoxyphenyl)-3-(4-ethoxyphenyl)urea]: under setting [2], the IC50 is less than 2000 nM.
Still for that read-out and setting: the figure for `Cc1ccc(NC(=O)Nc2ccc(OC(C)C)cc2)cc1C` [Compound 691, 1-(3,4-dimethylphenyl)-3-(4-isopropoxyphenyl)urea] is less than 2000 nM; for `Cc1ccc2nc(NC(=O)Nc3ccccc3)sc2c1` [Compound 323, 1-(6-methyl-1,3-benzothiazol-2-yl)-3-phenylurea] it is less than 2000 nM; for `CCc1ccc(NC(=O)Nc2ccc([N+](=O)[O-])cc2)cc1` [Compound 487, 1-(4-ethylphenyl)-3-(4-nitrophenyl)urea] it is less than 2000 nM.
Consider `CCOC(=O)c1ccc(NC(=O)Nc2cccc(OC(F)F)c2)cc1` [Compound 678, ethyl 4-[({[3-(difluoromethoxy)phenyl]amino}carbonyl)amino]benzoate], for which, under setting [2], the IC50 was less than 2000 nM.
With `Cc1ccc(NC(=O)Nc2ccc(O)cc2)cc1F` [Compound 760, 1-(3-fluoro-4-methylphenyl)-3-(4-hydroxyphenyl)urea], the half-inhibitory concentration (IC50) under setting [2] is less than 2000 nM.
For `CCc1ccc(NC(=O)Nc2ccc(Cl)c(C)c2)cc1` [Compound 446, 1-(4-chloro-3-methylphenyl)-3-(4-ethylphenyl)urea], the IC50 under setting [2] was less than 2000 nM.
On the same count and under the same terms, to `CCc1ccc(NC(=O)Nc2cccc(C(=O)OC)c2)cc1` [Compound 645, methyl 3-({[(4-ethylphenyl)amino]carbonyl}amino)benzoate] belongs less than 2000 nM.
Turning to `O=C(Nc1ccc(OC(F)F)cc1)Nc1ccc(-n2cnc(Cl)c2Cl)cc1` [Compound 82, N-[4-(4,5-dichloro-1H-imidazol-1-yl)phenyl]-N′-[4-(difluoromethoxy)phenyl]urea], the IC50 under setting [1] was less than 2000 nM.
For the compound `COC(=O)c1ccc(NC(=O)Nc2ccc(CC#N)cc2)cc1` [Compound 713, methyl 4-[({[4-(cyanomethyl)phenyl]amino}carbonyl)amino]benzoate], under setting [2], the IC50 is less than 2000 nM.
Regarding `COc1ccc(NC(=O)Nc2ccc(OC(C)C)cc2)cc1` [Compound 552, 1-(4-isopropoxyphenyl)-3-(4-methoxyphenyl)urea], the IC50 under setting [2] was less than 2000 nM.
`CCc1cccc(NC(=O)Nc2ccc(OCC#N)cc2)c1` [Compound 488, 1-[4-(cyanomethoxy)phenyl]-3-(3-ethylphenyl)urea]: under setting [2], the IC50 was less than 2000 nM.
Consider `O=C(Nc1ccc(OC(F)(F)F)cc1)Nc1ccc2c(c1)CCC2` [Compound 610, 1-(2,3-dihydro-1H-inden-5-yl)-3-[4-(trifluoromethoxy)phenyl]urea], for which the IC50 under setting [2] was less than 2000 nM.
For the compound `Cc1ccc(NC(=O)Nc2ccc(C)cc2)cc1` [Compound 171, N,N′-bis(4-methylphenyl)urea], the IC50 under setting [1] was less than 2000 nM.
For the compound `CCOc1cccc(NC(=O)Nc2ccc(C)cc2)c1` [Compound 354, 1-(3-ethoxyphenyl)-3-(4-methylphenyl)urea], the IC50 under setting [2] was less than 2000 nM.
Regarding `CC(=O)c1ccc(NC(=O)Nc2ccc(OC(F)F)cc2)cc1` [Compound 288, N-(4-acetylphenyl)-N′-[4-(difluoromethoxy)phenyl]urea], the half-maximal inhibitory concentration (IC50) under setting [1] is less than 2000 nM.
In the case of `CC(=O)c1ccc(NC(=O)Nc2ccc(OC(F)F)cc2)cc1` [Compound 427, 1-(4-acetylphenyl)-3-[4-(difluoromethoxy)phenyl]urea], under setting [2], the IC50 is less than 2000 nM.
Regarding `CCc1ccc(NC(=O)Nc2ccc(C#N)cc2)cc1` [Compound 27, N-(4-cyanophenyl)-N′-(4-ethylphenyl)urea], under setting [3], the IC50 is less than 2000 nM.
As to `Cc1cc(NC(=O)Nc2cccc(OC(C)C)c2)ccc1F` [Compound 689, 1-(4-fluoro-3-methylphenyl)-3-(3-isopropoxyphenyl)urea], under setting [2], the IC50 is less than 2000 nM.
As for `CCOc1ccc(NC(=O)Nc2ccc(Cl)c(Cl)c2)cc1` [Compound 624, 1-(3,4-dichlorophenyl)-3-(4-ethoxyphenyl)urea], under setting [2], the IC50 is less than 2000 nM.
Consider `O=C(Nc1ccc(OC(F)F)cc1)Nc1ccc(F)c(F)c1` [Compound 609, 1-[4-(difluoromethoxy)phenyl]-3-(3,4-difluorophenyl)urea], for which, under setting [2], the concentration for half-maximal inhibition (IC50) was less than 2000 nM.
Still for that read-out and setting: to `CCc1ccc(NC(=O)Nc2ccc(F)cc2)cc1` [Compound 325, 1-(4-ethylphenyl)-3-(4-fluorophenyl)urea] belongs less than 2000 nM; to `CCCc1ccc(NC(=O)Nc2cccc(C(C)=O)c2)cc1` [Compound 351, 1-(3-acetylphenyl)-3-(4-propylphenyl)urea], less than 2000 nM; to `Cc1ccc(NC(=O)Nc2ccccc2)cc1Cl` [Compound 435, 1-(3-chloro-4-methylphenyl)-3-phenylurea], less than 2000 nM.
`CC(=O)c1ccc(NC(=O)Nc2ccc(Cl)cc2)cc1` [Compound 192, N-(4-acetylphenyl)-N′-(4-chlorophenyl)urea]: the IC50 under setting [1] was less than 2000 nM.
Consider `CC(C)Oc1ccc(NC(=O)Nc2ccc(Cl)cc2)cc1` [Compound 252, N-(4-chlorophenyl)-N′-(4-isopropoxyphenyl)urea], for which the IC50 under setting [1] is less than 2000 nM.
Consider `CC(C)Oc1cccc(NC(=O)Nc2cccc(C#N)c2)c1` [Compound 276, N-(3-cyanophenyl)-N′-(3-isopropoxyphenyl)urea], for which, under setting [1], the IC50 is less than 2000 nM.
For the compound `COCc1ccc(NC(=O)Nc2ccc([N+](=O)[O-])cc2)cc1` [Compound 561, 1-[4-(methoxymethyl)phenyl]-3-(4-nitrophenyl)urea], under setting [2], the IC50 is less than 2000 nM.
As for `N#CCOc1ccc(NC(=O)Nc2cccc([N+](=O)[O-])c2)cc1` [Compound 600, 1-[4-(cyanomethoxy)phenyl]-3-(3-nitrophenyl)urea], the IC50 under setting [2] was less than 2000 nM.
Consider `O=C(Nc1ccc(OC(F)F)cc1)Nc1ccc(Cl)c(Cl)c1` [Compound 94, N-(3,4-dichlorophenyl)-N′-[4-(difluoromethoxy)phenyl]urea], for which the IC50 under setting [1] is less than 2000 nM.
Turning to `Cc1ccc(NC(=O)Nc2ccc(-n3cnc(Cl)c3Cl)cc2)cc1` [Compound 320, 1-[4-(4,5-dichloro-1H-imidazol-1-yl)phenyl]-3-(4-methylphenyl)urea], under setting [2], the IC50 was less than 2000 nM.
In the case of `CC(=O)c1ccc(NC(=O)Nc2cccc(Br)c2)cc1` [Compound 353, 1-(4-acetylphenyl)-3-(3-bromophenyl)urea], under setting [2], the IC50 was less than 2000 nM.
Regarding `CCOC(=O)c1ccc(NC(=O)Nc2ccc(C(C)O)cc2)cc1` (stereo not drawn) [Compound 750, ethyl 4-[({[4-(1-hydroxyethyl)phenyl]amino}carbonyl)amino] benzoate], under setting [2], the IC50 is less than 2000 nM.
Regarding `O=C(Nc1ccc(OC(F)F)cc1)Nc1ccc(Br)nc1` [Compound 114, N-(6-bromopyridin-3-yl)-N′-[4-(difluoromethoxy)phenyl]urea], the IC50 under setting [1] is less than 2000 nM.
The same measure, in the same setting: the figure for `CS(=O)(=O)N1CCc2cc(NC(=O)Nc3ccc(OC(F)F)cc3)ccc21` [Compound 109, N-[4-(difluoromethoxy)phenyl]-N′-[1-(methylsu1fonyl)-2,3-dihydro-1H-indol-5-yl]urea] is less than 2000 nM.
